Test results as given in ChEMBL document CHEMBL5723587, “Data for DCP probe BI-113823” (2024).

Key:
B2 bradykinin receptor = B2 bradykinin receptor (Homo sapiens, UniProt P30411); experiment: Radioligand binding assay (displacement of kallidin, human BDKRB2 ) at 10 µM ( Non-specific binding is estimated in the presence of 10 µM Des-Arg9- (Leu8)-Bradykinin. Membranes are filtered and washed, the filters are then counted to determine [3H]Kallidin[des-Arg10, Leu9] specifically bound.); parameters: compound concentration 10 uM
[1] = biological target: Sodium-dependent serotonin transporter (Homo sapiens) (UniProt P31645); experiment: Activity against 5HTTRANS/HU in the Eurofins SafetyScreen44 (BI) by Radioactive Assay; conditions: Compound concentration 10.0 uM
[2] = biological target: Adenosine receptor A1 (Homo sapiens) (UniProt P30542); experiment: Activity against A1/HU in the Eurofins SafetyScreen44 (BI) by Radioactive Assay; conditions: Compound concentration 10.0 uM
[3] = biological target: Adenosine receptor A2a (Homo sapiens) (UniProt P29274); experiment: Activity against A2A/HU in the Eurofins SafetyScreen44 (BI); conditions: Compound concentration 10.0 uM
[4] = biological target: Adenosine receptor A3 (Homo sapiens) (UniProt P0DMS8); experiment: Activity against A3/H in the Eurofins SafetyScreen44 (BI); conditions: Compound concentration 10.0 uM
[5] = biological target: Alpha-2A adrenergic receptor (Homo sapiens) (UniProt P08913); experiment: Activity against ALPHA2A/H in the Eurofins SafetyScreen44 (BI) by Radioactive Assay; conditions: Compound concentration 10.0 uM
[6] = biological target: B1 bradykinin receptor (Homo sapiens) (UniProt P46663); experiment: Activity against B1/H in the Eurofins SafetyScreen44 (BI) by Radioactive Assay; conditions: Compound concentration 10.0 uM
[7] = biological target: Beta-2 adrenergic receptor (Homo sapiens) (UniProt P07550); experiment: Activity against BETA2/HU in the Eurofins SafetyScreen44 (BI) by Radioactive Assay; conditions: Compound concentration 10.0 uM
[8] = biological target: L-type calcium channel, Cav1.2 alpha-1C (CA+/DILSI/RA) (Rattus norvegicus, UniProt P22002); experiment: Activity against CA+/DILSI/RA in the Eurofins SafetyScreen44 (BI) by Radioactive Assay; conditions: compound concentration 10 uM, read-out: % Ctrl
[9] = biological target: Cysteinyl leukotriene receptor 1 (Homo sapiens) (UniProt Q9Y271); experiment: Activity against CYSLT1_HS in the Eurofins SafetyScreen44 (BI) by Radioactive Assay; conditions: Compound concentration 10.0 uM
[10] = biological target: D(3) dopamine receptor (Homo sapiens) (UniProt P35462); experiment: Activity against D3/HU in the Eurofins SafetyScreen44 (BI) by Radioactive Assay; conditions: Compound concentration 10.0 uM
[11] = biological target: D(4) dopamine receptor (Homo sapiens) (UniProt P21917); experiment: Activity against D4.2/H in the Eurofins SafetyScreen44 (BI) by Radioactive Assay; conditions: Compound concentration 10.0 uM
[12] = biological target: Sodium-dependent dopamine transporter (Homo sapiens) (UniProt Q01959); experiment: Inhibitor of DATRANS/H in the Eurofins SafetyScreen44 (BI) by Radioactive Assay; conditions: Compound concentration 10.0 uM
[13] = biological target: Estrogen receptor (Homo sapiens) (UniProt P03372); experiment: Activity against ERALPHA/H in the Eurofins SafetyScreen44 (BI) by Radioactive Assay; conditions: Compound concentration 10.0 uM
[14] = biological target: Endothelin-1 receptor (Homo sapiens) (UniProt P25101); experiment: Activity against ETA/HU in the Eurofins SafetyScreen44 (BI) by Radioactive Assay; conditions: Compound concentration 10.0 uM
[15] = biological target: Sodium- and chloride-dependent GABA transporter 1 (Rattus norvegicus) (UniProt P23978); experiment: Activity against GABATRANS/RA in the Eurofins SafetyScreen44 (BI) by Radioactive Assay; conditions: Compound concentration 10.0 uM
[16] = biological target: Histamine H1 receptor (Homo sapiens) (UniProt P35367); experiment: Activity against H1/H in the Eurofins SafetyScreen44 (BI) by Radioactive Assay; conditions: Compound concentration 10.0 uM
[17] = biological target: Histamine H3 receptor (Homo sapiens) (UniProt Q9Y5N1); experiment: Activity against H3/H in the Eurofins SafetyScreen44 (BI) by Radioactive Assay; conditions: Compound concentration 10.0 uM
[18] = biological target: ATP-sensitive inward rectifier potassium channel 1 isoform X1 (Mesocricetus auratus) (UniProt A0A1U8CU73); experiment: Activity against K+/KATP/HA in the Eurofins SafetyScreen44 (BI) by Radioactive Assay; conditions: Cricetinae; Compound concentration 10.0 uM
[19] = biological target: Glutamate receptor ionotropic, kainate 1 (Rattus norvegicus) (UniProt P22756); experiment: Activity against KAINATE/R in the Eurofins SafetyScreen44 (BI) by Radioactive Assay; conditions: Compound concentration 10.0 uM
[20] = biological target: Kappa-type opioid receptor (Homo sapiens) (UniProt P41145); experiment: Activity against KAPPA/HU in the Eurofins SafetyScreen44 (BI) by Radioactive Assay; conditions: Compound concentration 10.0 uM
[21] = biological target: Muscarinic acetylcholine receptor M1 (Homo sapiens) (UniProt P11229); experiment: Activity against M1/HU in the Eurofins SafetyScreen44 (BI) by Radioactive Assay; conditions: Compound concentration 10.0 uM
[22] = biological target: Muscarinic acetylcholine receptor M3 (Homo sapiens) (UniProt P20309); experiment: Activity against M3/HU in the Eurofins SafetyScreen44 (BI) by Radioactive Assay; conditions: Compound concentration 10.0 uM
[23] = biological target: Acetylcholine receptor subunit alpha (Homo sapiens) (UniProt P02708); experiment: Activity against NACH/H in the Eurofins SafetyScreen44 (BI) by Radioligand Binding; conditions: Compound concentration 10.0 uM
[24] = biological target: Substance-P receptor (Homo sapiens) (UniProt P25103); experiment: Activity against NK1/HU in the Eurofins SafetyScreen44 (BI) by Radioactive Assay; conditions: Compound concentration 10.0 uM
[25] = biological target: Glutamate receptor ionotropic, NMDA 2A (Rattus norvegicus) (UniProt Q00959); experiment: Activity against NMDAPHSI/R in the Eurofins SafetyScreen44 (BI) by Radioactive Assay; conditions: Compound concentration 10.0 uM
[26] = biological target: P2X purinoceptor (Oryctolagus cuniculus) (UniProt G1U3D6); experiment: Activity against P2X/RB in the Eurofins SafetyScreen44 (BI) by Radioactive Assay; conditions: Compound concentration 10.0 uM
[27] = biological target: P2Y purinoceptor 1 (Rattus norvegicus) (UniProt P49651); experiment: Activity against P2Y/RAT in the Eurofins SafetyScreen44 (BI) by Radioactive Assay; conditions: Compound concentration 10.0 uM
[28] = biological target: Protein kinase C alpha type (Mus musculus) (UniProt P20444); experiment: Inhibitor of PHORBOLE/M in the Eurofins SafetyScreen44 (BI) by Radioactive Assay; conditions: Compound concentration 10.0 uM
[29] = biological target: 3',5'-cyclic-AMP phosphodiesterase 4A (Rattus norvegicus) (UniProt P54748); experiment: Activity against ROLIPRAM/R in the Eurofins SafetyScreen44 (BI) by Radioligand Binding; conditions: Compound concentration 10.0 uM
[30] = biological target: Sigma non-opioid intracellular receptor 1 (Homo sapiens) (UniProt Q99720); experiment: Activity against SIGMA1/HU in the Eurofins SafetyScreen44 (BI) by Radioactive Assay; conditions: Compound concentration 10.0 uM
[31] = biological target: Sigma intracellular receptor 2 (Rattus norvegicus) (UniProt Q5U3Y7); experiment: Activity against SIGMA2/R in the Eurofins SafetyScreen44 (BI) by Radioactive Assay; conditions: Compound concentration 10.0 uM
[32] = biological target: Thyroid hormone receptor alpha (Rattus norvegicus) (UniProt P63059); experiment: Activity against THYROID HORM in the Eurofins SafetyScreen44 (BI) by Radioactive Assay; conditions: Homo sapiens; Compound concentration 10.0 uM
[33] = biological target: Neuropeptide Y receptor type 1 (Homo sapiens) (UniProt P25929); experiment: Activity against Y1/HU in the Eurofins SafetyScreen44 (BI) by Radioactive Assay; conditions: Compound concentration 10.0 uM
[34] = biological target: Alpha-1A adrenergic receptor (Rattus norvegicus) (UniProt P43140); experiment: Activity against ALPHA1A/R in the Eurofins SafetyScreen44 (BI) by Others; conditions: Compound concentration 10.0 uM

Chain of Adenosine receptor A1 (Homo sapiens) (P30542 whole entry): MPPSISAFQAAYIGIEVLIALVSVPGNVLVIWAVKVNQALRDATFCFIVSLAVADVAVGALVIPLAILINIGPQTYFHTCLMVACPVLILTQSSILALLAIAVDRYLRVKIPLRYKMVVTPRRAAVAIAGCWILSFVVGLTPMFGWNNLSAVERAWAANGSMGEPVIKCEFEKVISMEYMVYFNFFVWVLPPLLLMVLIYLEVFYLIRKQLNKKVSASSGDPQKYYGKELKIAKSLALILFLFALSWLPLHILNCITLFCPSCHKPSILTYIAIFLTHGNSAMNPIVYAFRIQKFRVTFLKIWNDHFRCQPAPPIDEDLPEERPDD
Chain of D(4) dopamine receptor (Homo sapiens) (P21917 whole entry): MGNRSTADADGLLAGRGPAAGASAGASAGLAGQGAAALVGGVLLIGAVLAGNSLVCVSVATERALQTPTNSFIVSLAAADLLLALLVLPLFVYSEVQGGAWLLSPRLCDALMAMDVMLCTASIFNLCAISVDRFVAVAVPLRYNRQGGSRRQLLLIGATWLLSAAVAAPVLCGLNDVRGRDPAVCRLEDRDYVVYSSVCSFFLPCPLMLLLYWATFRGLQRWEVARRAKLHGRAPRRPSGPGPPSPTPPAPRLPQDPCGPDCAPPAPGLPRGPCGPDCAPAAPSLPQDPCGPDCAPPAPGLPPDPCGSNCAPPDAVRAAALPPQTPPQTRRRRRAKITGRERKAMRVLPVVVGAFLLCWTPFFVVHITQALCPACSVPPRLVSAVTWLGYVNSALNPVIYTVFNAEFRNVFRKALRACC
Chain of Beta-2 adrenergic receptor (Homo sapiens) (P07550 whole entry, looked up): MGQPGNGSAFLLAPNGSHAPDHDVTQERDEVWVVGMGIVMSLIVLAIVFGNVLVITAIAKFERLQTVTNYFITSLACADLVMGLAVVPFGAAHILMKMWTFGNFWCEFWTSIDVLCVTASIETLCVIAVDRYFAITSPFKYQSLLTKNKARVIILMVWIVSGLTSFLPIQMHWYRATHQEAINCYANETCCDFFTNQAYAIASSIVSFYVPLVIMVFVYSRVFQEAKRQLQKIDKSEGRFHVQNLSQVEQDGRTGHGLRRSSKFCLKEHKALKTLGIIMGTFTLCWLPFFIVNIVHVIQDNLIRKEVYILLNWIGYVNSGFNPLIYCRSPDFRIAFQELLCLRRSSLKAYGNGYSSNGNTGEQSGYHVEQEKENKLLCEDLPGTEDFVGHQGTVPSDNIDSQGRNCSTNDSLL
Chain of Muscarinic acetylcholine receptor M1 (Homo sapiens) (P11229 whole entry): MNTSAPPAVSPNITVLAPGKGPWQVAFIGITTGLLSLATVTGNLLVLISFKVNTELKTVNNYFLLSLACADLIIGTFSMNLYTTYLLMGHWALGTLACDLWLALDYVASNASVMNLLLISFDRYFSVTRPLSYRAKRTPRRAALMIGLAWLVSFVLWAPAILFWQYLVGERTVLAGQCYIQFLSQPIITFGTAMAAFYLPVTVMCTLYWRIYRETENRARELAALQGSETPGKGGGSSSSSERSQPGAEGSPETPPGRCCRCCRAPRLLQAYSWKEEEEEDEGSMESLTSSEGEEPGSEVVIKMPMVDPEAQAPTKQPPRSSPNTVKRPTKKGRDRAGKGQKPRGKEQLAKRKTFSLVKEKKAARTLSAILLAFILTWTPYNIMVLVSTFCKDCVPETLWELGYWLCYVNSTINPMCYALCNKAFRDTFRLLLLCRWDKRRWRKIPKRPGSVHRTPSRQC
Chain of Sodium-dependent serotonin transporter (Homo sapiens) (P31645 whole entry, looked up): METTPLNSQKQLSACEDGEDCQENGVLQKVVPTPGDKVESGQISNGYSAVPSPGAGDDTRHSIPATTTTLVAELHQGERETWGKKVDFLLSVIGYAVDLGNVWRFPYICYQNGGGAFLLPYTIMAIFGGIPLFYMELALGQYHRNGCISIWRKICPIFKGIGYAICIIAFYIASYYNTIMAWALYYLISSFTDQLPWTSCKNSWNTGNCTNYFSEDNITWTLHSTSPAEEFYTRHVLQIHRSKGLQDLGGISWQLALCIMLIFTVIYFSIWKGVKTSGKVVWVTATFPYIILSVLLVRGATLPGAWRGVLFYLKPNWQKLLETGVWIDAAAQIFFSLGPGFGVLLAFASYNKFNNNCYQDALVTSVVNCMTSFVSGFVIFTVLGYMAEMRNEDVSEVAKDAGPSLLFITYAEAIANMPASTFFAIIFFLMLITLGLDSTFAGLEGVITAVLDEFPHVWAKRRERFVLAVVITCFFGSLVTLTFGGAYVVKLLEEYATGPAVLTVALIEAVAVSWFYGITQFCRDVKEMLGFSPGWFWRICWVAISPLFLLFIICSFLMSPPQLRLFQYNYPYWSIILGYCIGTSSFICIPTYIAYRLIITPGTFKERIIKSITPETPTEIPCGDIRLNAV
Chain of ATP-sensitive inward rectifier potassium channel 1 isoform X1 (Mesocricetus auratus) (A0A1U8CU73 as listed by the source): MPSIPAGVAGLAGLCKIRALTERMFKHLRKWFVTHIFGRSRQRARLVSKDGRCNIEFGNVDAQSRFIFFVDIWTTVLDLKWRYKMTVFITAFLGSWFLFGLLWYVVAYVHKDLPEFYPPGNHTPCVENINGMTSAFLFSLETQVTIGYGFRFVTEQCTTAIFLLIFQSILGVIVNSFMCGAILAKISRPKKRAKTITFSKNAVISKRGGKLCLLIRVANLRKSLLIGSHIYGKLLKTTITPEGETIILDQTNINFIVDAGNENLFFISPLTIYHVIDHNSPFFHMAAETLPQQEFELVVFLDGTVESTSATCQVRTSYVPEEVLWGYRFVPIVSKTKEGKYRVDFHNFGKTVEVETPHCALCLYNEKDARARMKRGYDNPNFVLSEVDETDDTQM
Chain of Histamine H1 receptor (Homo sapiens) (P35367 whole entry): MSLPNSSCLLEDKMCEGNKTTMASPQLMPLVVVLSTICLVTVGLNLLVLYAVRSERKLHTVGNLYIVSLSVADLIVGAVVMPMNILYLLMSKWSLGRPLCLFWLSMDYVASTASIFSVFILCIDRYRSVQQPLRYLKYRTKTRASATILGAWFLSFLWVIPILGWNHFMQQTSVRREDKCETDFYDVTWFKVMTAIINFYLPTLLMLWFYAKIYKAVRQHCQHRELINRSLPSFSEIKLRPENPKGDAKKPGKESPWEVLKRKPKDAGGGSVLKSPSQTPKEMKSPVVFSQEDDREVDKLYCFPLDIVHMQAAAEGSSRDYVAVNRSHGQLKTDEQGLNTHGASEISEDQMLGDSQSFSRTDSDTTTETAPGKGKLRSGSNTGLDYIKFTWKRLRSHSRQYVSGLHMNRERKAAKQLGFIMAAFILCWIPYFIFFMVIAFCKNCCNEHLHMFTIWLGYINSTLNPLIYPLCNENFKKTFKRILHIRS
Chain of Glutamate receptor ionotropic, kainate 1 (Rattus norvegicus) (P22756 whole entry): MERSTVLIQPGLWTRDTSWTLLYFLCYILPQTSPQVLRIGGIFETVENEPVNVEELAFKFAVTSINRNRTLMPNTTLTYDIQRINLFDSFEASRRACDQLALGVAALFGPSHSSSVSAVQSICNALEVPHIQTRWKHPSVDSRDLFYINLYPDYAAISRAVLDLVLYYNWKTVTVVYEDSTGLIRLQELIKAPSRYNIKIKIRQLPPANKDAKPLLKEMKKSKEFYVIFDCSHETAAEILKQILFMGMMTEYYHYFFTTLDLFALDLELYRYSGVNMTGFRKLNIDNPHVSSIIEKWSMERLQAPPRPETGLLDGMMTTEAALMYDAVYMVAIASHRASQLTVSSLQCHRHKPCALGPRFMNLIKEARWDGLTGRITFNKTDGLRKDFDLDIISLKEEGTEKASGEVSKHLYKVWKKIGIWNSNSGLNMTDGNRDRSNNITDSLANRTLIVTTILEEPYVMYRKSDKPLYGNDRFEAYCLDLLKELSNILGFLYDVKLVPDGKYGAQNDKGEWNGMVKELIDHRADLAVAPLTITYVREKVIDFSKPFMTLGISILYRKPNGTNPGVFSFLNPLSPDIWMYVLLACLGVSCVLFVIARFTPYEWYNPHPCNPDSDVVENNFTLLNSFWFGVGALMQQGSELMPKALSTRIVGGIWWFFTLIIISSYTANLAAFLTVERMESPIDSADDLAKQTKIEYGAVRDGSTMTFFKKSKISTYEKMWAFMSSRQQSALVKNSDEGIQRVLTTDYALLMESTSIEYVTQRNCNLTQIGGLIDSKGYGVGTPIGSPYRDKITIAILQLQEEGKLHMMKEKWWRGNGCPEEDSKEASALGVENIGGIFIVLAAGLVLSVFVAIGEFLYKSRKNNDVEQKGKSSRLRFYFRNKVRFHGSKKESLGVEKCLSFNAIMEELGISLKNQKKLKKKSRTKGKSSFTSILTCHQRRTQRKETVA
Chain of Sigma intracellular receptor 2 (Rattus norvegicus) (Q5U3Y7 whole entry): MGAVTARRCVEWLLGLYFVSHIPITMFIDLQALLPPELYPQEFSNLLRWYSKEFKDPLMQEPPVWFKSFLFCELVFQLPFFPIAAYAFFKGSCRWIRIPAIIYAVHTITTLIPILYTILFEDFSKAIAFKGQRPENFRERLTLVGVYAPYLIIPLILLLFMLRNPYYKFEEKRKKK

COc1cc(C)c(S(=O)(=O)N(C)CCOCC(=O)N(C)[C@H]2CCC[C@@H](N3CCN(C)CC3)C2)c(C)c1
Ki (B2 bradykinin receptor): > 10 µM (not active) | residual activity [1]: 108% | residual activity [2]: 99% | residual activity [3]: 97% | residual activity [4]: 101% | residual activity [5]: 85% | residual activity [6]: 22% | residual activity [7]: 103% | activity at 10 µM [8]: 86% (not active) | residual activity [9]: 95% | residual activity [10]: 86% | residual activity [11]: 101% | residual activity [12]: 103% | residual activity [13]: 104% | residual activity [14]: 96% | residual activity [15]: 119% | residual activity [16]: 85% | residual activity [17]: 77% | residual activity [18]: 90% | residual activity [19]: 93% | residual activity [20]: 99% | residual activity [21]: 88% | residual activity [22]: 84% | residual activity [23]: 100% | residual activity [24]: 109% | residual activity [25]: 111% | residual activity [26]: 100% | residual activity [27]: 108% | residual activity [28]: 102% | residual activity [29]: 84% | residual activity [30]: 30% | residual activity [31]: 45% | residual activity [32]: 84% | residual activity [33]: 109% | residual activity [34]: 118%
